Measured values from publication PMC10516900 (Communications Biology, 2023).

Legend:
USP7 = details: cited from earlier work
USP47 = details: cited from earlier work
[1] = tested on: multiple myeloma xenograft models; details: in vitro and in vivo multiple myeloma xenograft models; cited from earlier work
HCT116 (p53+/+) cells = test: Q-PCR relative expression levels, HCT116 (p53+/+); assay type: cell-based, human
Ub-AMC = Ub-AMC hydrolysis, Michaelis-Menten enzyme kinetics and relative activity of USP constructs; assay type: biochemical
Protocol: Enzymes and substrates were diluted in the reaction buffer (20 mM HEPES, pH 7.4, 150 mM NaCl, and 5 mM DTT) to a concentration of 5 μM for the substrate and 0.5 μM for the enzymes. At the indicated time points following the reaction initiation, 10 μL reaction aliquots were taken and the reaction was stopped by adding SDS sampling buffer and analyzed using SDS-PAGE. Then, the 4–15% gradient gel was stained with Coomassie Brilliant Blue R-250. USP enzymatic activity and inhibition assays were measured at room temperature using the cleavage-sensitive fluorogenic substrate Ub-AMC (Boston Biochem, U-550). The deubiquitination assay was performed following the protocol by Ernst et al.[30]. Briefly, enzyme activity assays were performed in assay buffer in 20 mM HEPES (pH 7.4), 100 mM NaCl, and 5 mM DTT) containing cUSP47CD (in 50 nM), hUSP47CD-UBL12 (in 100 nM) or hUSP7CD (in 100 nM) constructs and serial dilutions of Ub-AMC (final 35 μM). The AMC fluorescence emission was monitored at 460 nm (excitation at 380 nm) for 30–60 min using a SpectraMax M3 plate reader (Molecular Devices). […] The data were fitted using GraphPad Prism 7 (GraphPad Inc.). Fluorescence intensity was recorded every 45 s for 90 min. Data are presented as the mean ± SD (n = 3).

## CC(=O)c1cc([N+](=O)[O-])c(Sc2cccc(Cl)c2Cl)s1 [P5091, 1-[5-(2,3-dichlorophenylsulfanyl)−4-nitro-2thienl]ethanone]
USP7; read-out: IC50 USP7
  IC50: 4.2 µM
USP47
  IC50: 4.3 µM
[1]
  antitumor efficacy: antitumor efficacy

## USP7i-2: USP7 siRNA #2, 5′-ACCCUUGGACAAUAUUCCU-3′ (chemistry not given here)
HCT116 (p53+/+) cells
  relative expression level of USP7 (Q-PCR): 0.5662
  relative expression level of USP47 (Q-PCR): 0.9671

## USP47i-1: USP47 siRNA #1, 5′-AAGCTACTCCTACTCATCTATTT-3′ (chemistry not given here)
HCT116 (p53+/+) cells
  relative expression level of USP7 (Q-PCR): 0.6273
  relative expression level of USP47 (Q-PCR): 0.3385

## C[C@H](CC(=O)N1CCC(O)(Cn2cnc3cc(NC(=O)CCN4CCN(C)CC4)ccc3c2=O)CC1)c1ccccc1 [XL188]
USP7; recently reported USP7 inhibitors
  potency and specificity for USP7: high potency and specificity only for USP7

B1: hUSP47CD-UBL12: human USP47 catalytic domain with the first two UBL domains, residues 1-794 (protein, UniProt Q96K76 1-794, looked up, fragment)
chain: MVPGEENQLVPKEDVFWRCRQNIFDEMKKKFLQIENAAEEPRVLCIIQDTTNSKTVNERITLNLPASTPVRKLFEDVANKVGYINGTFDLVWGNGINTADMAPLDHTSDKSLLDANFEPGKKNFLHLTDKDGEQPQILLEDSSAGEDSVHDRFIGPLPREGSGGSTSDYVSQSYSYSSILNKSETGYVGLVNQAMTCYLNSLLQTLFMTPEFRNALYKWEFEESEEDPVTSIPYQLQRLFVLLQTSKKRAIETTDVTRSFGWDSSEAWQQHDVQELCRVMFDALEQKWKQTEQADLINELYQGKLKDYVRCLECGYEGWRIDTYLDIPLVIRPYGSSQAFASVEEALHAFIQPEILDGPNQYFCERCKKKCDARKGLRFLHFPYLLTLQLKRFDFDYTTMHRIKLNDRMTFPEELDMSTFIDVEDEKSPQTESCTDSGAENEGSCHSDQMSNDFSNDDGVDEGICLETNSGTEKISKSGLEKNSLIYELFSVMVHSGSAAGGHYYACIKSFSDEQWYSFNDQHVSRITQEDIKKTHGGSSGSRGYYSSAFASSTNAYMLIYRLKDPARNAKFLEVDEYPEHIKNLVQKERELEEQEKRQREIERNTCKIKLFCLHPTKQVMMENKLEVHKDKTLKEAVEMAYKMMDLEEVIPLDCCRLVKYDEFHDYLERSYEGEEDTPMGLLLGGVKSTYMFDLLLETRKPDQVFQSYKPGEVMVKVHVVDLKAESVAAPITVRAYLNQTVTEFKQLISKAIHLPAETMRIVLERCYNDLRLLSVSSKTLKAEGFFRSNKVFV
modifications: catalytic domain with UBL1-2
Ub-AMC
  Km: 3 ± 0.6 µM
  kcat: 0.03 ± 0.002 s⁻¹
